Data on 25 molecules can be found in patent publication EP2969029B1, “USE OF COSMETICALLY OR DERMATOLOGICALLY SAFE SUBSTITUTED MICHAEL ACCEPTORS FOR THE PREVENTION, REDUCTION OR PROPHYLAXIS OF THE TYROSINASE ACTIVITY OF THE HUMAN SKIN AND/OR THE LIGHTENING OF THE HUMAN SKIN” (Beiersdorf AG, priority 2013, dated 2014).

Each structure is given as a SMILES string.

For this assay, the target named is T1, humane Tyrosinase (Homo sapiens, UniProt P14679).
T1 sequence (P14679 19-529): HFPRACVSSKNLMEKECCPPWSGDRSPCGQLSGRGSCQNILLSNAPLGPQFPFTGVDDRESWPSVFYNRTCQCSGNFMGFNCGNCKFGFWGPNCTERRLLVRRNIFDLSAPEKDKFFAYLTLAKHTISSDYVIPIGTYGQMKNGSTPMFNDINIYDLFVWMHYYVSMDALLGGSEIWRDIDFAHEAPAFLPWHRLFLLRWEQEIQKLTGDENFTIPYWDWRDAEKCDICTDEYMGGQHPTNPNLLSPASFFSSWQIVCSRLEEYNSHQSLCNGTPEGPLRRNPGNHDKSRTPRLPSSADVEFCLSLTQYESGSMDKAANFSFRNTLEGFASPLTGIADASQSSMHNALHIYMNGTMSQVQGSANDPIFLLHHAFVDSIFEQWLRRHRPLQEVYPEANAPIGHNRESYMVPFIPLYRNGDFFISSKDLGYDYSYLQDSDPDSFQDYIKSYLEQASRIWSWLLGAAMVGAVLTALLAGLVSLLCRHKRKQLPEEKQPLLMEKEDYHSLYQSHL
The experiment in a line: Enzyme test: conversion of L-DOPA to L-dopaquinone by human tyrosinase, MBTH detection, absorption at 490 nm. In kind it is biochemical. As to conditions: Inhibition der Tyrosinaseaktivität, substrate L-DOPA.
`O=C(O)c1ccccc1` [Natrium Benzoat]: the response was half-maximal at 1440 µM (EC50). The same measure for `CCCCCCOC(=O)c1ccccc1O` [Hexyl 2-hydroxybenzoat]: 4230 µM; for `CCOC(=O)C=Cc1ccccc1` [Ethyl cinnamat]: 2590 µM; for `O=C(O)/C=C/c1ccncc1` [(E)-3-(pyridin-4-yl) acrylsäure]: 697 µM.

With `COc1ccc(C(=O)O)c(O)c1` [2-Hydroxy-4-methoxy Benzoesäure], the EC50 (as a rule, the midpoint of the concentration-response curve) stood at 2660 µM. Compared with the last molecule, the EC50 is about 3.8-fold higher. The molecule `O=C(O)/C=C/c1ccc(O)c(O)c1` [(E)-3-(3,4-dihydroxyphenyl)acrylsäure] had an EC50 of 1370 µM. Molecule `O=C(O)/C=C/c1ccco1` [(E)-3-(furan-2-yl)acrylsäure] registered an EC50 of 166 µM. `COC(=O)c1cc(O)ccc1O` [Methyl 2,5-Dihydroxybenzoat]: a half-maximal response (EC50) required 2450 µM.

As to `O=C(OCc1ccccc1)c1ccccc1` [Benzyl benzoat], the EC50 was determined as 998 µM. Compared with the last molecule, the EC50 is about 2.5-fold lower. Turning to `O=C(O)/C=C/c1c[nH]c2ccccc12` [(E)-3-(1H-indol-3-yl)acrylsäure], the response was half-maximal at 833 µM (EC50). Regarding `O=CC=Cc1ccccc1` [Zinnamaldehyd], it took 211 µM to reach a half-maximal effect (EC50).

In turn, `CC1CCC(=CC(=O)O)CC1` (stereo not shown) [2-(4-Methyl-1-cyclohexyliden)essigsäure] yielded an EC50 of 6540 µM. In the case of `O=C(/C=C/c1ccc(O)cc1)NCCc1c[nH]c2ccc(O)cc12` [(E)-N-(2-(5-hydroxy-1H-indol-3-yl)ethyl)-3-(4-hydroxyphenyl)acrylamid], the EC50 turned out to be 515 µM. Regarding `O=C(C=Cc1ccccc1)OCc1ccccc1` [Benzyl cinnamat], the response was half-maximal at 260 µM (EC50). Molecule `COc1ccc(C(=O)/C=C(\O)c2ccc(C(C)(C)C)cc2)cc1` [(Z)-3-(4-(tert-butyl)phenyl)-3-hydroxy-1-(4-methoxyphenyl)prop-2-en-1-on] had an EC50 of 1550 µM. In turn, `C=CCOC(=O)C=Cc1ccccc1` [Allyl cinnamat] came in with an EC50 of 2340 µM.

Consider `O=C(O)/C=C/c1cccs1` [(E)-3-(thiophen-2-yl)acrylsäure], for which the EC50 amounted to 32 µM. Turning to `C/C=C/C=C/C(=O)O` [Kaliumsorbat], it took 1530 µM to reach a half-maximal effect (EC50). Take `O=C(OC1CCCCC1)c1ccccc1O` [Cyclohexyl 2-hydroxybenzoat]: the EC50 came out at 547 µM. Compared with the last molecule, the EC50 is about 2.8-fold lower. `COc1cc(/C=C/C(=O)O)ccc1O` [trans-Ferulasäure]: the EC50 is 2210 µM. The molecule `C=COC(=O)C=Cc1ccccc1` [Vinyl cinnamat] displayed an EC50 of 2610 µM. Turning to `COc1ccc(C=CC(=O)OCCC(C)C)cc1` [Isoamyl p-Methoxycinnamat], a half-maximal response (EC50) required 358 µM. Compared with the last molecule, the EC50 is about 7.3-fold lower.

For `O=C(OCc1ccccc1)c1ccccc1O` [Benzyl 2-hydroxybenzoat], the concentration for a half-maximal effect (EC50) is 378 µM. For `O=C(O)/C=C/c1cccnc1` [(E)-3-(pyridin-3-yl)acrylsäure], the EC50 amounted to 634 µM. `CCCc1c[nH]c(=S)[nH]c1=O` [5-Propyl-2-thioxo-2,3-dihydropyrimidin-4(1H)-on] showed an EC50 of 494 µM. This EC50 and that of the molecule before are within 1.5-fold of each other.
